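Grown in 96-well plates, cells were treated for 48 hours with each compound at five concentrations. Insufficient inhibition: endpoint recorded as highest concentration tested. Abbreviation: GI50, concentration required for 50% inhibition of growth.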 Activity calls are given as the source filed them. Rule as the data show it: active = GI50 up to about 1.1 µM and inactive = higher.
Experiments:
Test in all cases: growth of human tumour cells (NCI), 48 h
[1] = system: SNB-19
[2] = system: MDA-MB-435
[3] = system: OVCAR-4
[4] = system: NCI-H23
[5] = system: CAKI-1
[6] = system: HL-60
[7] = system: SN12C
[8] = system: NCI/ADR-RES
[9] = system: Hs-578T
[10] = system: TK-10
[11] = system: KM12
[12] = system: SK-OV-3
[13] = system: Malme-3M
[14] = system: CCRF-CEM
[15] = system: MOLT-4
[16] = system: PC-3
[17] = system: MCF7
[18] = system: HOP-62
[19] = system: HCC 2998
[20] = system: LOX IMVI
[21] = system: UACC-62
[22] = system: A498
[23] = system: COLO 205
[24] = system: NCI-H522
[25] = system: UO-31
[26] = system: M14
[27] = system: SF-295
[28] = system: SR
[29] = system: MDA-N
[30] = system: 786-0
[31] = system: SK-MEL-5
[32] = system: HT-29
[33] = system: MDA-MB-231
[34] = system: DU-145
[35] = system: A549
[36] = system: NCI-H226
[37] = system: NCI-H460
[38] = system: HCT-15
[39] = system: SK-MEL-28
[40] = system: RPMI-8226
[41] = system: RXF 393
[42] = system: SK-MEL-2
[43] = system: U-251
[44] = system: HOP-92
[45] = system: ACHN
[46] = system: HCT-116
[47] = system: SNB-75
[48] = system: OVCAR-5
[49] = system: IGROV-1
[50] = system: K562
[51] = system: UACC-257
[52] = system: T47D
[53] = system: OVCAR-8
[54] = system: SF-268
[55] = system: EKVX
[56] = system: BT-549
[57] = system: OVCAR-3
[58] = system: SF-539
[59] = system: SW-620

Measured: GI50

O=C1[C@@H](O)[C@@H]2CCCC[C@@]23CCCN13
inactive: [1] > 100 µM | [2] > 100 µM | [3] > 100 µM | [4] > 100 µM | [5] > 100 µM | [6] > 100 µM | [7] > 100 µM | [8] > 100 µM | [9] > 100 µM | [10] > 100 µM | [11] > 100 µM | [12] > 100 µM | [13] > 100 µM | [14] > 100 µM | [15] > 100 µM | [16] > 100 µM | [17] > 100 µM | [18] > 100 µM | [19] > 100 µM | [20] > 100 µM | [21] > 100 µM | [22] > 100 µM | [23] > 100 µM | [24] > 100 µM | [25] > 100 µM | [26] > 100 µM | [27] > 100 µM | [28] > 100 µM | [29] > 100 µM | [30] > 100 µM | [31] > 100 µM | [32] > 100 µM | [33] > 100 µM | [34] > 100 µM | [35] > 100 µM | [36] > 100 µM | [37] > 100 µM | [39] > 100 µM | [40] > 100 µM | [41] > 100 µM | [42] > 100 µM | [43] > 100 µM | [44] 36.6 µM | [45] > 100 µM | [46] > 100 µM | [47] 37.6 µM | [48] > 100 µM | [49] > 100 µM | [50] > 100 µM | [51] > 100 µM | [52] > 100 µM | [53] > 100 µM | [54] > 100 µM | [55] > 100 µM
> 100 µM: [38]

CCCNC(=O)c1cc(NC(=O)c2cc(NC(=O)/C=C/c3ccccc3)c(OC)c(OC)c2)c(OC)c(OC)c1
92.3 µM: [38]
active: [7] 0.248 µM | [21] 0.148 µM | [36] 0.0216 µM
inactive: [1] 5.87 µM | [2] 12 µM | [3] 2.54 µM | [56] 17.8 µM | [57] 4.01 µM | [4] 11.4 µM | [6] > 100 µM | [8] 9.33 µM | [9] 1.92 µM | [10] 14.8 µM | [11] 8.28 µM | [12] 7.62 µM | [13] 3.08 µM | [14] > 100 µM | [15] > 100 µM | [16] 6.87 µM | [17] 7.98 µM | [18] 4.41 µM | [20] 2.96 µM | [22] 11.4 µM | [23] > 100 µM | [24] 4.72 µM | [25] 5.6 µM | [26] 38.4 µM | [27] 3.16 µM | [28] 48.9 µM | [29] 13.8 µM | [30] 3.61 µM | [32] 11.8 µM | [58] 6.14 µM | [33] 1.26 µM | [34] 24.8 µM | [35] 5.64 µM | [37] 11.8 µM | [39] 14.5 µM | [40] 27 µM | [41] 2.42 µM | [42] 7.83 µM | [43] 4.11 µM | [45] 7.94 µM | [46] 5.7 µM | [47] 2.49 µM | [48] 12.7 µM | [59] > 100 µM | [49] 12.4 µM | [50] > 100 µM | [51] 14.2 µM | [53] 4.51 µM | [54] 2.05 µM | [55] 15.8 µM

CC(CCC#N)(CCC#N)C(=O)CC(O)(C(F)(F)F)C(F)(F)F
2.28 µM: [38]
active: [6] 0.817 µM | [15] 0.547 µM
inactive: [1] 23.7 µM | [2] 5.6 µM | [3] 5.02 µM | [57] 2.76 µM | [4] 5.43 µM | [5] 4.09 µM | [7] 7.24 µM | [8] 5.94 µM | [9] 15.3 µM | [10] 7.71 µM | [11] 18.1 µM | [12] 47 µM | [13] 5.02 µM | [14] 1.54 µM | [16] 11.9 µM | [17] 6.5 µM | [18] 19.8 µM | [19] 17 µM | [20] 2.07 µM | [21] 6.19 µM | [22] 20.6 µM | [23] 2.28 µM | [24] 1.85 µM | [25] 4.08 µM | [26] 2.1 µM | [27] 18.2 µM | [28] 1.4 µM | [29] 1.73 µM | [30] 2.12 µM | [31] 13.3 µM | [32] 6.65 µM | [58] 3.44 µM | [33] 4.06 µM | [34] 11.4 µM | [35] 10.1 µM | [36] 19.8 µM | [37] 16.6 µM | [39] 11 µM | [40] 2.64 µM | [41] 2.07 µM | [42] 33.7 µM | [43] 9.16 µM | [44] 4.86 µM | [45] 4.13 µM | [46] 2.8 µM | [47] 14.9 µM | [48] 12.3 µM | [59] 2.76 µM | [49] 13.2 µM | [50] 1.36 µM | [51] 6.41 µM | [52] 4.22 µM | [53] 3.3 µM | [54] 7.89 µM | [55] 20.7 µM

C=C(C)[C@@H]1CCC2=C[C@@H](OC2=O)[C@@H](C(=C)C)C2=CC(C(=O)O)=C(C1)O2
inactive: [1] > 100 µM | [2] > 100 µM | [3] > 100 µM | [56] > 100 µM | [57] 34.1 µM | [4] > 100 µM | [5] > 100 µM | [6] 78 µM | [7] > 100 µM | [8] > 100 µM | [9] > 100 µM | [10] > 100 µM | [11] 80.2 µM | [12] > 100 µM | [13] > 100 µM | [14] 38.7 µM | [15] 46.3 µM | [17] 68.1 µM | [18] > 100 µM | [19] > 100 µM | [20] 42 µM | [21] > 100 µM | [22] > 100 µM | [23] > 100 µM | [24] > 100 µM | [25] 26 µM | [26] > 100 µM | [27] > 100 µM | [29] > 100 µM | [30] > 100 µM | [31] > 100 µM | [32] > 100 µM | [58] > 100 µM | [33] > 100 µM | [34] > 100 µM | [35] > 100 µM | [36] > 100 µM | [40] 40.6 µM | [41] > 100 µM | [42] > 100 µM | [44] > 100 µM | [45] > 100 µM | [46] 60.4 µM | [47] > 100 µM | [48] > 100 µM | [59] > 100 µM | [49] > 100 µM | [50] 41 µM | [51] > 100 µM | [52] 59.2 µM | [53] > 100 µM | [54] > 100 µM | [55] > 100 µM
> 100 µM: [38]

CC1=NCC[N+]1(CCc1ccccc1)Cc1ccccc1 (stereo not given)
> 100 µM: [38]
inactive: [1] 71.9 µM | [3] 37.2 µM | [56] 33.6 µM | [57] 5.71 µM | [4] 19.8 µM | [6] 16.6 µM | [7] 45.5 µM | [8] > 100 µM | [9] 16 µM | [10] 48.1 µM | [11] 47.2 µM | [12] > 100 µM | [13] 20.4 µM | [14] 34.5 µM | [17] 47.9 µM | [18] > 100 µM | [19] 35.7 µM | [20] 44.9 µM | [21] 75.2 µM | [22] 60.3 µM | [23] 5.93 µM | [24] 11.6 µM | [25] > 100 µM | [26] 50.5 µM | [27] > 100 µM | [28] 13.4 µM | [29] 46.3 µM | [30] > 100 µM | [31] 14.7 µM | [32] 12.5 µM | [33] 62.4 µM | [34] > 100 µM | [35] 13.4 µM | [36] 65 µM | [37] 34.8 µM | [39] 64.6 µM | [40] 13.7 µM | [41] > 100 µM | [42] 27.7 µM | [43] 29.3 µM | [44] 4.78 µM | [45] > 100 µM | [46] 49 µM | [47] > 100 µM | [48] 47.4 µM | [59] > 100 µM | [49] 17.3 µM | [50] 2.94 µM | [51] 19.3 µM | [52] > 100 µM | [53] 37.3 µM | [54] 27.6 µM | [55] > 100 µM

From ChEMBL document CHEMBL1201862, “PubChem BioAssay data set” (2004)
